Measurements as given in patent US11319526B2, “Methods and compositions for making antibodies and antibody derivatives with reduced core fucosylation” (Seagen Inc., priority 2008, dated 2022).

Key:
[1] = test system: antibody core fucosylation in CHO DG44 cell line producing h1F6; assay: Effect of fucose analogs on antibody core fucosylation (h1F6 from CHO DG44 culture); assay type: cell-based, Chinese hamster; conditions: Cricetulus griseus, CHO-DG44, 120 h, Table 1, day 5
Method: Media was supplemented with insulin like growth factor (IGF), penicillin, streptomycin and either 1 mM or 50 μM of the fucose analog (prepared as described supra). On day 5 post inoculation, the culture was centrifuged at 13000 RPM for 5 minutes to pellet cells; antibodies were then purified from supernatant.
(§1) Antibody purification was performed by applying the conditioned media to protein A resin pre-equilibrated with 1× phosphate buffered saline (PBS), pH 7.4. After washing resin with 20 resin bed volumes of 1×PBS, antibodies were eluted with 5 resin bed volumes of Immunopure IgG elution buffer (Pierce Biotechnology, Rockford, Ill.). A 10% volume of 1M tris pH 8.0 was added to neutralize the eluted fraction.

[2] = test system: core fucosylation of h1F6 in CHO DG44 cell line; assay: Capillary electrophoresis of oligosaccharides of h1F6 expressed in the presence of alkynyl fucose peracetate; assay type: cell-based, Chinese hamster; conditions: h1F6 expressed with 50 μM alkynyl fucose peracetate; β-galactosidase treated sample (FIG. 1C)
Method: To determine the effect of alkynyl fucose peracetate on glycosylation of antibodies, a CHO DG44 cell line expressing a humanized IgG1 anti-CD70 monoclonal antibody, h1F6 (see International Patent Publication WO 06/113909) was cultured at 3.0×10^5 cells per mL in 30 mLs of CHO culture media at 37°, 5% CO2, by shaking at 100 RPM in 125 mL shake flasks. The CHO culture media was supplemented with insulin like growth factor (IGF), penicillin, streptomycin and either 50 or 100 μM alkynyl fucose peracetate (prepared as described in Example 1). […]
To further characterize the glycans on the h1F6 antibodies from Example 3, capillary electrophoresis was performed. […] Labeled oligosaccharides were diluted with water and analyzed by capillary electrophoresis using a Beckman Coulter PA-800 in a N-CHO coated capillary (Beckman Coulter). […] Labeled oligosaccharides were detected using laser induced fluorescence (LFI) with an excitation wavelength of 488λ. Emission fluorescence was detected at 520λ.
Samples of the antibodies were also treated with β-galactosidase to remove galactose. […] Labeled oligosaccharides were diluted with water and analyzed by capillary electrophoresis using a Beckman Coulter PA-800, in a N-CHO coated capillary (Beckman Coulter) running in 40 mM EACA, 0.2% HPMC at pH 4.5. […] Labeled oligosaccharides were detected using laser induced fluorescence (LFI) with an excitation wavelength of 488λ. […]

[3] = test system: BALB/C mouse spleen cell and SP2/0 mouse myeloma cell fusion expressing a murine anti-Liv-1 antibody; assay: Antibody core fucosylation in hybridoma, BALB/C-SP2/0 fusion; assay type: cell-based; conditions: 50 μM in Hybridoma Serum Free Media
Method: Three antibody expressing hybridoma lines were tested to determine the effect of alkynyl fucose peracetate on antibody core fucosylation from these cell lines. These hybridomas were: 1) a BALB/C mouse spleen cell and a P2X63-AG 8.653 mouse myeloma cell fusion expressing the chimeric anti-ley antigen antibody BR96; 2) a BALB/C mouse spleen cell and a NS0 mouse myeloma cell fusion expressing a murine anti-Liv1 antibody; and 3) a BALB/C mouse spleen cell and a SP2/0mouse myeloma cell fusion expressing a murine anti-Liv-1 antibody. These hybridomas were cultured at 3.0×10^5 cells per mL in 30 mLs of Hybridoma Serum Free Media (Invitrogen, Carlsbad Calif.) supplemented with 50 μM alkynyl fucose peracetate at 37° C., 5% CO2 and shaking at 100 RPM in a 125 mL shake flask. Cultures were fed on day 3 with 2% volume of a feed media. On day four, the culture was split 1:4 into fresh culture media. Cultures were fed with a 6% volume of feed media on days 5, 7, 9 and 10. Conditioned media was collected when the viability of the culture dropped below 60% or on day 13 by passing culture through a 0.2 μm filter.
Antibody purification was performed by applying the conditioned media to a protein A column pre-equilibrated with 1× phosphate buffered saline (PBS), pH 7.4. […]

[4] = test system: CHO DG44 cell line producing h1F6; assay: Non-core fucosylated antibody production in different culture media; assay type: cell-based, Chinese hamster; conditions: 50 μM; PowerCHO versus OptiCHO media, day 5
Method: To determine the effect of different culture media on non-core fucosylated antibody production, a CHO DG44 cell line producing a humanized IgG1 anti-CD70 monoclonal antibody, h1F6 (see International Patent Publication WO 06/113909), was cultured in various media. The cells (7.5×10^5 cells per mL in 2 mLs) were cultured in PowerCHO (Lonza Group Ltd., Basil, Switzerland) or OptiCHO (Invitrogen, Carlsbad, Calif.) media CHO culture media at 37°, 5% CO2 and shaking at 100 RPM in a 6 well tissue culture plate. Media was supplemented with insulin like growth factor (IGF), penicillin, streptomycin and 50 μM alkynyl fucose peracetate. On day 5 post-inoculation, the culture was centrifuged at 13000 RPM for 5 minutes to pellet cells; antibodies were then purified from supernatant.
as §1, with “fraction. Production of non-core fucosylated antibody was determined as described in Example 7. The proportion of non-core fucosylated to core fucosylated antibody produced from each media was similar.” for “fraction.”

## C#CC(OC(C)=O)[C@@H](OC(C)=O)[C@@H](OC(C)=O)[C@@H](C=O)OC(C)=O (stereo partly drawn) [Alkynyl fucose peracetate, 5-ethynylarabinose tetraacetate]
[1]; 50 μM fucose analog, inhibition of core fucosylation of h1F6, read-out: Inhibition at 50 μM
  inhibition at 50 µM: > 80%
[1]; 1 mM fucose analog, ND = non-core fucosylated antibody not detected due to poor antibody production or inhibition of cell growth
  inhibition at 1000 µM: > 80%
[2]
  oligosaccharide core fucosylated: 6%
  oligosaccharide non-core fucosylated: approximately 85%
[3]
  core fucosylation: inhibited
[4]
  proportion of non-core fucosylated to core fucosylated antibody produced from each media: similar
